Measurements published in patent publication US20040167164A1, “Compositions and methods for treating particular chemical addictions and mental illnesses” (priority 1998, published 2004).
Values joined by “and” are separate entries in the source; they are usually repeats but may differ in a detail not shown here. Identical values can stand only once. “Also recorded” adds a separate entry of the source.

What was measured:
[1] = tested on: tobacco addiction (nicotine); experiment: Treatment of smokers (nicotine dependence); design: species or system human; details: in vivo
Protocol: Furthermore, the present inventor utilized the combination of Haloperidol and AMPT by administering small doses of Haloperidol, 2 mg, (6 mgs total per day) for a healthy human, weighing 70 kg, simultaneously with the initiation of treatment with AMPT.
Generally, the administration of Haloperidol was discontinued after 7-10 days, while AMPT was administered for a period of at least three months in doses of 250 mg b.i.d.

[2] = tested on: craving and abstinence symptoms; experiment: Unintentional simple blind study with defective AMPT capsules; assay type: in vivo, human; details: capsules containing less than half the intended amount of AMPT
Description: Moreover, it was confirmed that the effective agent in abolishing craving and abstinence symptoms in humans was the action of AMPT and none of the other agents given—Akineton or Polycitra—when in our first studies in humans, unknowingly we administered to patients capsules in which the amount of AMPT contained was less than half the amount of AMPT they should have had. The excessive amount of filler (calcium stearate) put in the capsulating machine in order to render the blended mixture more fluid and less compact, given the heavy consistency of the AMPT that was otherwise difficult for incorporation into capsules, was so excessive that it decreased the amount of AMPT in the capsules to less than half of what it should have been.
Once we knew the cause of the failure, we started to administer the proper dosage of AMPT. The patients then responded. […] The number of patients treated with different addictions, convinced us that the association of AMPT with Haloperidol produces very outstanding and beneficial results.

[3] = tested on: addiction to cocaine plus alcohol; experiment: 16 patient study, patients addicted to cocaine plus alcohol; assay type: in vivo, human; details: three patients
Protocol: (§1) Sixteen patients, randomly selected, addicted to heroin, cocaine, or cocaine and alcohol, were assigned to 3 different treatment groups, as follows:
(§2) a) A group of 6 patients, 3 of them addicted to heroin, and another 3 addicted to cocaine plus alcohol, were treated with AMPT alone.
(§3) b) Another group of 6 patients, 3 addicted to heroin and another 3 to cocaine plus alcohol, were treated with Haloperidol alone.
(§4) c) Another group of 4 patients, 2 addicted to heroin and another 2 addicted to cocaine and alcohol, were treated with placebo from the first day of admission.
(§5) The treatment protocol was as follows:
(§6) 2) All patients received the same proper amount of the alkalinizer Polycitra to produce a urinary pH around 7.8.
(§7) 4) All patients started treatment immediately after they arrived before they could develop any signs of withdrawal.
(§8) 5) Because of the difficulty to fulfill the above requirement of having consumed drugs on the same day of admission, all patients could not be treated simultaneously. This requirement was instated to maintain similarity with many other patients in our general program, where patients are started on treatment immediately after they arrive, even if they arrive immediately after consuming large amounts of the addicting drug(s).

heroin addiction = experiment: Case reports, heroin addiction
[4] = tested on: rats exposed to cigarette extract and smoke; experiment: Rats given cigarette extract water and cigarette smoke, choice test; assay type: in vivo; details: after 18 hours
Description: A cigarette extract was obtained by burning cigarettes and collecting the tar, nicotine, and other products of cigarette combustion by a perforated plastic tube tied to the exhaust of a miniature vacuum cleaner. The air and smoke was passed through a container of water in which the cigarette extract was deposited. This drinking water was subsequently given to the animals. In addition to bottle feeding rats with the cigarette extract water (equivalent to 6 cigarettes per rat per day), the rats were also exposed to cigarette smoke. The rats were exposed for 2 hours at 8 hour intervals, for a total of 6 hours a day, to cigarette smoke in a sealed chamber. After a period of 4 months, 24 animals died of different causes, pneumonia among them, and 66 survived. The remaining 66 animals were divided in two groups: 35 were treated with AMPT orally, and 31 were kept as controls. The urine was alkalinized in both groups with Polycitra to a pH of about 7.8.
At the end of 4 months, all rats were given the choice to continue drinking the same cigarette extract contaminated water or drink pure drinking water in equal amounts. All animals were given the choice to be in the cigarette smoke filled chamber or to use clean air quarters. […]

[5] = tested on: rats made dependent on alcohol; experiment: Rats made dependent on alcohol (25% alcohol solution); assay type: in vivo; details: AMPT 300 mg per kg of body weight
Protocol: Subsequently, it was observed that rats made dependent on alcohol (25% alcohol solution) would prefer again to drink plain water, instead of the alcohol solution upon which they had been made dependent, when treated with AMPT (300 mg per kg of body weight), with their preference being manifested after 2-4 days of treatment.

[6] = tested on: morphine addicted monkeys; experiment: Craving and abstinence syndrome in narcotic-addicted monkeys; assay type: in vivo; details: bar-presses; withdrawal symptoms, aggressive behavior
Description: Equally the same, at present it is well known that all addictions have in common a biochemical factor—the alteration of the dopamine synthesis and its transporters.
Based on the above, we further hypothesized that the combination of both agents would render better results than any one of them alone.

addiction to heroin = tested on: addiction to heroin
Protocol: as §1, §2, §3, §4, §5, §6, §7, §8

[7] = tested on: patients with dual disorder; experiment: Length of hospitalization of treated patients (Table I); details: human, in vivo
[8] = assay type: in vivo; details: with Polycitra orally, urine pH about 7.8 to 8
Description: Once known that AMPT produced crystalluria, which prevented its use in humans, the present inventor conducted research to find a solution to the crystalluria problem. Specifically, this research was directed to provide a composition containing AMPT that could be used in the treatment of patients suffering from different conditions and without the formation of AMPT crystalluria. This was accomplished with extensive research in animals, such as mice, rats, mongrel and beagle dogs, to which AMPT with a urine alkalinizer was administered. The alkalinization was obtained with Polycitra, administered orally, and in an amount to obtain a urine pH of about 7.8 to 8.

[9] = tested on: homovanilic acid (HVA), a dopamine metabolite; experiment: Urinary dopamine metabolites during Haloperidol administration; assay type: in vivo, human; details: for dopamine metabolites (HVA) in urine: bipolar, manic and paranoid schizophrenic patients
Protocol: While studying human subjects, diagnosed with bipolar illness, the effects of administering Haloperidol on the metabolites of the neurotransmitter dopamine (DA) were analyzed.
The urinary studies were done for a period of 6 weeks in eight patients chosen for the study (three manic patients and five schizophrenics of the paranoid type).

alcoholism = experiment: Treatment of alcoholic patients; assay type: in vivo, human; details: follow-up 2 to 3 years

SMILES: CC(N)(Cc1ccc(O)cc1)C(=O)O (stereo not drawn) [AMPT, alpha-methyl-para-tyrosine]
- time until craving to smoke is lost [1]: 2 to 4 days and 2 to 3 days
- patient response [2]: failed to respond
- day when craving for cocaine started to remit [3]: fifth day
- day when craving for cocaine was totally extinguished [3]: seventh
- time to discharge from hospital (heroin addiction; case reports 1, 2, 16, 17, 18): 65 days and 78 days
- craving and abstinence symptoms (heroin addiction; case reports 1, 2, 17, 18): no abstinence symptoms appearing
- relapse to drugs at follow-up (heroin addiction; follow-up 14 months to 1½ years): had not taken any drugs
- choice of chamber [4]: totally avoiding the smoke filled compartment
- choice of drinking water ([4]; AMPT orally, discontinued two days in advance): chose to continue drinking the pure water
- time until preference for plain water instead of alcohol solution [5]: 2 to 4 days
- craving and manifestations of the abstinence syndrome [6]: abolition of craving and withdrawal in all animals; also recorded: abolish the craving for morphine and the manifestations of the abstinence syndrome
- day when patients had no craving or abstinence symptoms (addiction to heroin; three patients): sixth day
- Average Length of Hospitalization [7]: 47 days
- Longest Hospitalization [7]: 97 days
- Shortest Hospitalization [7]: 26 days
- safety (autopsy, macroscopic, microscopic, electron-microscopy) [8]: safety being confirmed by autopsy
- time to almost total cessation of the acute symptoms (schizophrenia and mania; Haloperidol 10-15 mg t.i.d. when added): 24 to 30 h
- relapse of symptoms at follow-up on maintenance (schizophrenia and mania; case reports 8, 10, 11, follow-up 1-2 years): did not have any more phases of mania or depression

SMILES: OC(CCN1CCCCC1)(c1ccccc1)C1CC2C=CC1C2 (stereo not shown) [Akineton]
- dopamine metabolites (HVA) in urine [9]: not related to the increase in dopamine metabolites

SMILES: O=C(CCCN1CCC(O)(c2ccc(Cl)cc2)CC1)c1ccc(F)cc1 [Haloperidol, 4-[4-(p-chlorophenyl)-4-hydroxy-piperidino]-4′-fluorobutyrophe]
- clinical symptoms after a month of treatment ([9]; Haloperidol exclusively, up to 60 mg a day, three paranoid and two manic patients): not totally controlled
- dopamine metabolites (HVA) in urine [9]: increasing; also recorded: increased gradually and quantitatively in urine
- time to maximum HVA concentration in urine ([9]; continued Haloperidol administration): 3-4 weeks
- craving for cocaine ([3]; up to sixth day): did not subside
- craving and manifestations of the abstinence syndrome [6]: did not modify the craving
- overall conclusion on treatment of addiction (addiction to heroin; 16 patient study, heroin and cocaine plus alcohol): useless
- severity of withdrawal symptoms compared with no treatment agent (addiction to heroin; human, in vivo): more severe
- onset of severe manifestations of withdrawal (addiction to heroin; three patients): 26 to 30 h

SMILES: O=C1CC[C@@]2(O)[C@H]3Cc4ccc(O)c5c4[C@@]2(CCN3CC2CC2)[C@H]1O5 [Naltrexone]
- relapse into alcohol at follow-up (alcoholism): none
